Laboratory results taken from US20230115252A1, “METHODS FOR TREATING NEUROMUSCULAR JUNCTION-RELATED DISEASES” (NSERM (Institut National de la Sante et de la Recherche …, priority 2014, published 2023).

Key:
[1] = tested on: MuSKΔCRD primary myotubes; assay: AChR clustering in MuSKΔCRD primary myotubes; format: cell-based, mice; conditions: 16 h
Procedure: (§1) Muscle cells were isolated from P7-P10 hind limb Tibialis Anterior (TA) and Gastrocnemius muscles from MuSKΔCRD or WT mice. Briefly, muscle tissues were excised, separated from connective tissue, minced in dissecting medium (DMEM-F12 medium containing 2 mM glutamine, 2% penicillin/streptomycin (500 U), 2% Fungizone) and dissociated in dissecting medium containing 0.2% type I collagenase (Gibco) for 90 min at 37° C. in water bath. Cells were centrifugated, filtered and resuspended in proliferating medium (dissecting medium supplemented with 20% horse serum and 2% Ultroser G, Pall). After overnight pre-plating, cells were expanded in Matrigel (Corning) coated dishes for 3 to 5 days and differentiated in differentiating medium (dissecting medium supplemented with 2% horse serum) for 5 days. When indicated, myotubes were treated with recombinant Agrin (0.4 μg/ml, R&D system), Wnt11 (10 ng/ml, R&D system) or LiCl (2.5 mM, Sigma) for 16 h.
All images were collected on a microscope (model BX61; Olympus) equipped with a Fast 1394 Digital CCD FireWire camera (model Retiga 2000R; Qimaging) and a 20× objective or on a confocal laser scanning microscope (Zeiss LSM-710) equipped with a 20× objective and 63× oil objective. Collected Z-stacks confocal images (5 to 20 stacks with 1 to 1.5 μm (20×) z-steps) and image capture were made using LSM Image Browser. The same laser power and parameter setting were applied to ensure fair comparison between WT and MuSKΔCRD muscles. […] For quantification of the AChR clusters number, volume and intensity, image stacks were quantified using the ImageJ (version 1.46m) plugin “3D object counter” (Bolte and Cordeliéres, 2006). […] At least 4 diaphragms or 50 isolated muscle fibers of each genotype were analyzed and quantified. To evaluate β-catenin translocation to subsynaptic nuclei in isolated muscle fibers, image stacks corresponding to nuclei were used for quantification using the ImageJ intensity plot profile measuring the intensity of β-catenin and Dapi fluorescence within the segmented line.

[2] = tested on: Wnt/β-catenin signaling in MuSKΔCRD primary myotubes; assay: β-catenin translocation to the nucleus in primary myotubes; format: cell-based, mice
Procedure: as §1

MuSKΔCRD embryos = assay: NMJ formation in E18.5 MuSKΔCRD embryos after intraperitoneal injections in pregnant mice (whole mount diaphragm); format: in vivo
Procedure: Diaphragm muscles were dissected and fixed (4% paraformaldehyde in PBS) for 1 h at room temperature and further fixed (1% formaldehyde in PBS) overnight at 4° C. Muscles were washed three times for 15 minutes in PBS, incubated for 15 minutes with 100 mM glycine in PBS and rinsed in PBS. Muscles were permeabilized (0.5% Triton X-100 in PBS) for 1 h and blocked for 4 hours in blocking buffer (3% BSA, 5% goat serum and 0.5% Triton X-100 in PBS). Muscles were incubated overnight at 4° C. with rabbit polyclonal antibodies against neurofilament and synaptophysin in blocking solution. After three 1-hour washes in PBS, muscles were incubated overnight at 4° C. with Alexa-488 goat anti-rabbit IgG and Alexa-594-conjugated-α-bungarotoxin (α-BGT) in blocking solution. After three 1-hour washes in PBS, muscles were flat-mounted in Vectashield (Vector Labs) mounting medium.
(§2) All images were collected on a microscope (model BX61; Olympus) equipped with a Fast 1394 Digital CCD FireWire camera (model Retiga 2000R; Qimaging) and a 20× objective or on a confocal laser scanning microscope (Zeiss LSM-710) equipped with a 20× objective and 63× oil objective. Collected Z-stacks confocal images (5 to 20 stacks with 1 to 1.5 μm (20×) z-steps) and image capture were made using LSM Image Browser. The same laser power and parameter setting were applied to ensure fair comparison between WT and MuSKΔCRD muscles. Multiple Tile Scanned images were taken to cover the size of the whole diaphragm. Confocal images presented are single-projected image derived from overlaying each set of stacks. For quantification of the AChR clusters number, volume and intensity, image stacks were quantified using the ImageJ (version 1.46m) plugin “3D object counter” (Bolte and Cordeliéres, 2006). The threshold intensity was set by visual inspection of AChR clusters, being the same between WT and MuSKΔCRD images. The endplate band width was defined by the distance between the two farthest AChR clusters from the main nerve trunk. Around 100 measurements regularly spaced and covering the entire diaphragm were taken. At least 4 diaphragms or 50 isolated muscle fibers of each genotype were analyzed and quantified. To evaluate β-catenin translocation to subsynaptic nuclei in isolated muscle fibers, image stacks corresponding to nuclei were used for quantification using the ImageJ intensity plot profile measuring the intensity of β-catenin and Dapi fluorescence within the segmented line.
(§3) E12 pregnant mice or P10 adult mice were intraperitoneally injected with LiCl (Sigma, 600 mM-10 μl/g body weight) or placebo NaCl solution (0,0009%-10 μl/g body weight). Daily injections were made from E12 to E18 or from P10 to P60. After embryos genotyping, E18.5 or P60 diaphragms of LiCl-treated MuSKΔCRD mice were analyzed and compared to WT or NaCl-treated MuSKΔCRD.

MuSKΔCRD mice [3] = assay: NMJ morphology in postnatal MuSKΔCRD mice injected P10 to P60 (isolated TA muscle fibers); format: in vivo
Procedure: (§4) Isolated muscle fibers were labeled with antibodies as for whole-mount immunostaining Incubation times were the following: 3 hours for blocking, overnight at 4° C. for incubation with primary or secondary antibodies.
as §2
E12 pregnant mice or P10 adult mice were intraperitoneally injected with LiCl (Sigma, 600 mM-10 μl/g body weight) or placebo NaCl solution (0,0009%-10 μl/g body weight). Daily injections were made from E12 to E18 or from P10 to P60. […]

[4] = tested on: Wnt/β-catenin signaling in MuSKΔCRD mice; assay: β-catenin translocation to subsynaptic nuclei in isolated TA muscle fibers of treated MuSKΔCRD mice; format: in vivo; conditions: P40 TA muscle fibers, compared to NaCl-treated MuSKΔCRD
Procedure: as §4
All images were collected on a microscope (model BX61; Olympus) equipped with a Fast 1394 Digital CCD FireWire camera (model Retiga 2000R; Qimaging) and a 20× objective or on a confocal laser scanning microscope (Zeiss LSM-710) equipped with a 20× objective and 63× oil objective. Collected Z-stacks confocal images (5 to 20 stacks with 1 to 1.5 μm (20×) z-steps) and image capture were made using LSM Image Browser. The same laser power and parameter setting were applied to ensure fair comparison between WT and MuSKΔCRD muscles. Multiple Tile Scanned images were taken to cover the size of the whole diaphragm. […] For quantification of the AChR clusters number, volume and intensity, image stacks were quantified using the ImageJ (version 1.46m) plugin “3D object counter” (Bolte and Cordeliéres, 2006). […] At least 4 diaphragms or 50 isolated muscle fibers of each genotype were analyzed and quantified. To evaluate β-catenin translocation to subsynaptic nuclei in isolated muscle fibers, image stacks corresponding to nuclei were used for quantification using the ImageJ intensity plot profile measuring the intensity of β-catenin and Dapi fluorescence within the segmented line. […]

MuSKΔCRD mice [5] = assay: Rail-grip test and grip strength in treated MuSKΔCRD mice; format: in vivo; conditions: compared to NaCl-treated MuSKΔCRD mice
Procedure: Animals were allowed to grasp a metal rail suspended in midair and their latency to release the rail was recorded. Each mouse (N=6 for each genotype) was subjected to five trials with at least 10 min rest period between tests.
The grip strength was measured using a grip force tensiometer (Bioseb) according to the TREAT-NMD guidelines. Forelimbs and hindlimbs traction strength were recorded according to the manufacter's instructions. Three measurements were performed per animal.
as §3

WT primary myotubes = assay: AChR clustering in WT primary myotubes; format: cell-based, mice; conditions: Wnt11 10 ng/ml, 16 h
Procedure: as §1, with “When indicated, myotubes were treated with recombinant Agrin (0.4 μg/ml, R&D system), Wnt11 (10 ng/ml, R&D system) or LiCl (2.5 mM, Sigma) for 16 h.” left out
All images were collected on a microscope (model BX61; Olympus) equipped with a Fast 1394 Digital CCD FireWire camera (model Retiga 2000R; Qimaging) and a 20× objective or on a confocal laser scanning microscope (Zeiss LSM-710) equipped with a 20× objective and 63× oil objective. […] For quantification of the AChR clusters number, volume and intensity, image stacks were quantified using the ImageJ (version 1.46m) plugin “3D object counter” (Bolte and Cordeliéres, 2006). […] At least 4 diaphragms or 50 isolated muscle fibers of each genotype were analyzed and quantified. […]

[6] = E18.5, i.p. E12 to E18.5, vs NaCl-treated MuSKΔCRD
[7] = P40 TA, compared to NaCl-treated mice

[Cl-].[Li+] [LiCl, lithium chloride]
increase in the number of AChR clusters ([1]; LiCl 2.5 mM, MuSKΔCRD primary myotubes): 6 fold
β-catenin translocation to the nucleus ([2]; LiCl-treated compared to Wnt11-treated MuSKΔCRD myotubes): increased β-catenin translocation to the nucleus
reduction of number of bypassing neurites (MuSKΔCRD embryos; E18.5, compared to NaCl-treated embryos): 33%
reduction of length of primary nerve branches (MuSKΔCRD embryos; E18.5, i.p. E12 to E18.5): 35%
reduction of length of secondary nerve branches (MuSKΔCRD embryos; E18.5, i.p. E12 to E18.5): 28%
endplate band width reduction (MuSKΔCRD embryos; E18.5, i.p. E12 to E18.5, compared to NaCl-treated mutant embryos): 23%
gain in AChR clusters intensity (MuSKΔCRD embryos; [6]): 20%
gain in AChR clusters number (MuSKΔCRD embryos; [6]): 103%
gain in AChR clusters volume (MuSKΔCRD embryos; [6]): 186%
rescue of pre- and postsynaptic defects (MuSKΔCRD embryos; E18.5 MuSKΔCRD embryos): almost fully rescued both pre- and postsynaptic defects
size of NMJ structures (MuSKΔCRD mice [3]; P40 TA isolated muscle fibers, compared to NaCl-treated MuSKΔCRD): increased in size
decrease of number of AChRs fragments per NMJ (MuSKΔCRD mice [3]; [7]): 44%
increase of AChR cluster area (MuSKΔCRD mice [3]; [7]): 40%
increase of synaptophysin area (MuSKΔCRD mice [3]; [7]): 105%
β-catenin translocation to subsynaptic nuclei [4]: strong increase
fore limb strength (MuSKΔCRD mice [5]): significantly improved
hind limb strength (MuSKΔCRD mice [5]): significantly improved
latencies to fall from the rail grip (MuSKΔCRD mice [5]): significantly improved

agrin: recombinant Agrin (R&D system), nerve-secreted protein that binds LRP4 and activates MuSK
number of AChR clusters following agrin treatment ([1]; MuSKΔCRD compared to WT primary myotubes, agrin 0.4 μg/ml): No difference

B1: Wnt11: member of the Wnt family known to interact with MuSK CRD; recombinant, R&D system (protein, UniProt O96014 25-354, looked up)
Protein Wnt-11: IKWLALSKTPSALALNQTQHCKQLEGLVSAQVQLCRSNLELMHTVVHAAREVMKACRRAFADMRWNCSSIELAPNYLLDLERGTRESAFVYALSAAAISHAIARACTSGDLPGCSCGPVPGEPPGPGNRWGGCADNLSYGLLMGAKFSDAPMKVKKTGSQANKLMRLHNSEVGRQALRASLEMKCKCHGVSGSCSIRTCWKGLQELQDVAADLKTRYLSATKVVHRPMGTRKHLVPKDLDIRPVKDSELVYLQSSPDFCMKNEKVGSHGTQDRQCNKTSNGSDSCDLMCCGRGYNPYTDRVVERCHCKYHWCCYVTCRRCERTVERYVCK
increase in the number of AChR clusters (WT primary myotubes): 4.5 fold
decrease of Wnt11-induced number of AChR clusters ([1]; Wnt11-treated MuSKΔCRD primary myotubes, compared to Wnt11-treated WT, 10 ng/ml): 80%
β-catenin translocation to the nucleus ([2]; Wnt11-treated MuSKΔCRD compared to Wnt11-treated WT primary myotubes): strongly reduced
